{
  "source": "patent US20240044921A1",
  "about": "“METHOD FOR EVALUATING BLOOD COAGULATION PERFORMANCE, AND METHOD FOR INSPECTING RISK OF THROMBOSIS” (FUJIMORI KOGYO CO., LTD., priority 2020, published 2024)",
  "test_system": "whole blood",
  "assay": "ROTEM blood coagulation analysis, blood collection tube with rubber stopper, Example 3",
  "assay_type": "cell-based, human",
  "conditions": "heparan sulfate 1 μg/mL with calcium chloride, CTI 20 μg/mL, PKSI-527 40 μM (reagent (2))",
  "procedure": "The present invention will be more specifically described below by referring to Examples, but the present invention is not limited to the embodiments below. The blood samples used in the Examples were collected from healthy humans unless otherwise described.\nROTEM (IL) was used to analyze blood coagulation.\nBlood was collected using a blood collection tube (2 mL) containing 3.2% sodium citrate manufactured by Becton, Dickinson and Company. A rubber stopper is used for this blood collection tube. […]",
  "data": [
    {"substance": "heparan sulfate", "values": [
      {"measurement": "coagulation-promoting effect of the rubber stopper", "value": "can be inhibited"}
    ]}
  ]
}
